Source: US20030096237A1, “Determination of the ability of patients to respond to a tumor treatment” (priority 2000, published 2003)

Test system: CNCM I-2546
Assay: oligonucleotide array analysis of IFN-α modulated gene expression
Type: cell-based, human
Set-up: key to nAD M94880 mhc class i (hla-a*8001): normalized average difference between perfect and mismatch probeset signals
Procedure: All these cell lines were cultured in RPMI medium supplemented with 10% FCS, glutamine (2 mM), sodium pyruvate (1 mM), non-essential amino acids and HEPES buffer (10 mM) (all from GIBCO Life Sciences, Paisley, UK). When confluent, the cells were passaged by trypsinization.
Cultured melanoma cells were harvested by scraping and total cellular RNA was extracted. 10 μg from each sample were used directly as templates for cDNA synthesis using a commercial kit (Roche Molecular Biochemicals, Rotkreuz, Switzerland). The T7 promoter sequence incorporated into the cDNA synthesis primer allowed template amplification and biotin labeling by in vitro transcription using a commercial kit (Affymetrix, Santa Clara, Calif.). After alkaline heat fragmentation […] was hybridised to the array (Affymetrix, Santa Clara, Calif.) and all subsequent steps were performed following standard procedures as supplied with the arrays. Raw data were collected with a confocal laser scanner (Hewlett Packard, Palo Alto, Calif.) using GeneChip software v3.1 (Affymetrix, Santa Clara, Calif.).
Raw data were normalized based on the total chip signal obtained upon hybridisation of ME15 cell line cDNA. This array was selected because: i) the 5′/3′ intensity ratio of control genes was smaller than 3; ii)>25% of the genes are called “present” by Genechip; iii) the image appearance is homogeneous with low background and no sign of mechanical chip damage.
The normalized average difference (nAD) between the signals of the perfect and of the mismatch probesets for each gene was used as the expression level of a given gene. At least one nAD value in a pairwise comparison of data has to exceed 50 to be included. Based on nAD, change factors related to IFN-α exposure were also calculated. Negative nAD values were set to 20 in order to avoid the calculation of artificially high modifications. In order to exclude artefacts, only genes with robust change factors, greater than 2-fold, were included in the analysis. […] Genes were clustered according to their mode of regulation.
Total cellular RNA was extracted from the sensitive and resistant melanoma cell lines identified above, reverse transcribed and processed for hybridization to an oligonucleotide array (Hu6800FL, PN 900183) containing probe sets derived from 7000 full-length human genes. Expression levels for each gene were calculated as normalized average difference (nAD, see materials and methods).
Patterns of genes expressed in IFN-α sensitive and resistant melanoma cell lines were investigated upon 48 hour culture in the presence of IFN-α. CNCM I-2546 and CNCM I-2545 were studied in detail.
In Table 2 below, CNCM I-2546 and CNCM I-2545 cultured for 48 hours in the absence or in the presence of 100 U/ml IFN-α were used to assay cytokine modulated gene expression as matched with data obtained in fibrosarcoma cells. This analysis yielded six clusters of genes. […] Data are presented as average difference of signal intensity between match and mismatch probesets.
In Table 3 below, CNCM I-2546 and CNCM I-2545 cell lines cultured for 48 hours in the absence or in the presence of 100 U/ml IFN-α were used to identify novel cytokine induced genes whose expression was not found to be modulated in fibrosarcoma cells. Cluster 1 includes genes inducible in the CNCM I-2546 sensitive but not in the CNCM I-2545 resistant cell line. Cluster 2 comprises genes inducible in both lines. Data are presented as average difference of signal intensity between match and mismatch probesets.

[1] = CNCM I-2546 (+) IFN-α 100 U/ml 48 hours, (−) 0
[2] = CNCM I-2546 (+) IFN-α 100 U/ml 48 hours, (−) 24
[3] = CNCM I-2546 (+) IFN-α 100 U/ml 48 hours, (−) 43
[4] = CNCM I-2546 (+) IFN-α 100 U/ml 48 hours, (−) 55
[5] = CNCM I-2546 (+) IFN-α 100 U/ml 48 hours, (−) 77
[6] = CNCM I-2546 (+) IFN-α 100 U/ml 48 hours, (−) 107
[7] = CNCM I-2546 (+) IFN-α 100 U/ml 48 hours, (−) 110
[8] = CNCM I-2546 (+) IFN-α 100 U/ml 48 hours, (−) 150

nAD L37043 casein kinase i epsilon [1]: 441
nAD L40387 thyroid receptor interactor (trip14) [1]: 85
nAD D32050 alanyl-trna synthetase (CNCM I-2546 (+) IFN-α 100 U/ml 48 hours, (−) 21): 427
nAD L42243 ifnar2 gene (interferon receptor) (CNCM I-2546 (+) IFN-α 100 U/ml 48 hours, (−) 46): −4
nAD M19650 2′,3′-cyclic nucleotide 3prime-phosphodiesterase [4]: 269
nAD X95325 dna binding protein a variant (CNCM I-2546 (+) IFN-α 100 U/ml 48 hours, (−) 58): 375
nAD Z26491 gene catechol o-methyltransferase (CNCM I-2546 (+) IFN-α 100 U/ml 48 hours, (−) 73): 337
nAD U69126 fuse binding protein 2 (fbp2) [5]: 302
nAD U50327 protein kinase c substrate 80k-h gene (prkcsh) (CNCM I-2546 (+) IFN-α 100 U/ml 48 hours, (−) 80): 312
nAD U70063 human acid ceramidase (CNCM I-2546 (+) IFN-α 100 U/ml 48 hours, (−) 86): 221
nAD L35249 vacuolar h + -atpase mr 56,000 subunit (ho57) (CNCM I-2546 (+) IFN-α 100 U/ml 48 hours, (−) 92): 227
nAD U18018 ela enhancer binding protein (ela-f) [6]: 340
nAD U65579 mitochondrial nadh dehydrogenase-ubiquinone [7]: 377
nAD D78132 rheb gene, ras-related gtp binding protein gene (CNCM I-2546 (+) IFN-α 100 U/ml 48 hours, (−) 119): 307
nAD X70848 protein phosphatase 1, catalytic subunit (CNCM I-2546 (+) IFN-α 100 U/ml 48 hours, (−) 122): 370
nAD U91316 acyl-coa thioester hydrolase (CNCM I-2546 (+) IFN-α 100 U/ml 48 hours, (−) 141): 706
nAD U47025 fetal brain glycogen phosphorylase b (CNCM I-2546 (+) IFN-α 100 U/ml 48 hours, (−) 193): 924
nAD Z47055 farnesyl pyrophosphate synthetase like (CNCM I-2546 (+) IFN-α 100 U/ml 48 hours, (−) 263): 529
nAD X90846 mixed lineage kinase 2 (CNCM I-2546 (+) IFN-α 100 U/ml 48 hours, (−) 425): 173
nAD L13210 mac-2 binding protein (CNCM I-2546 (+) IFN-α 100 U/ml 48 hours, (−) 444): 2016
nAD U50648 interferon-inducible rna-dependent protein kinase (pkr) (CNCM I-2546 (+) IFN-α 100 U/ml 48 hours, (−) −70): 71
Substance: IFN-α
nAD U51127 interferon regulatory factor 5 (CNCM I-2546 (+) IFN-α 100 U/ml 48 hours, (−) 3): 116
nAD Z56281 interferon regulatory factor 3 (CNCM I-2546 (+) IFN-α 100 U/ml 48 hours, (−) 12): 136
nAD M98343 amplaxin (ems1) (CNCM I-2546 (+) IFN-α 100 U/ml 48 hours, (−) 15): 141
nAD J03909 gamma-interferon-inducible protein (ip-30) (CNCM I-2546 (+) IFN-α 100 U/ml 48 hours, (−) 18): 57
nAD M60784 ul snrnp-specific protein [2]: 216
nAD X57351 1-8d gene from interferon-inducible gene family [2]: 297
nAD D28137 bst-2 (CNCM I-2546 (+) IFN-α 100 U/ml 48 hours, (−) 28): 305
nAD S81914 iex-1 = radiation-inducible immediate-early gene (CNCM I-2546 (+) IFN-α 100 U/ml 48 hours, (−) 31): 312
nAD X96401 rox protein (CNCM I-2546 (+) IFN-α 100 U/ml 48 hours, (−) 34): 143
nAD M79462 pml-1 [3]: 1
nAD U22970 16-jun gene, interferon-inducible peptide (6-16) [3]: 2363
nAD U52513 rig-g (CNCM I-2546 (+) IFN-α 100 U/ml 48 hours, (−) 49): 96
nAD K01900 lymphocyte interferon alpha type 201 [4]: 85
nAD X15949 interferon regulatory factor-2 (irf-2) (CNCM I-2546 (+) IFN-α 100 U/ml 48 hours, (−) 67): 11
nAD X76538 mpv17 [5]: 313
nAD U09579 melanoma differentiation associated (mda-6) (CNCM I-2546 (+) IFN-α 100 U/ml 48 hours, (−) 83): 361
nAD Y00264 amyloid a4 precursor (CNCM I-2546 (+) IFN-α 100 U/ml 48 hours, (−) 89): 304
nAD U41515 dss1 (CNCM I-2546 (+) IFN-α 100 U/ml 48 hours, (−) 104): 51
nAD X04412 plasma gelsolin [6]: 372
nAD D50914 EST [7]: 359
nAD U72206 guanine nucleotide regulatory factor (lfp40) (CNCM I-2546 (+) IFN-α 100 U/ml 48 hours, (−) 113): 459
nAD M31013 nonmuscle myosin heavy chain (nmhc) (CNCM I-2546 (+) IFN-α 100 U/ml 48 hours, (−) 132): 441
nAD J00212 leukocyte interferon (ifn-alpha) (CNCM I-2546 (+) IFN-α 100 U/ml 48 hours, (−) 138): 49
nAD D49824 hla-b null allele (CNCM I-2546 (+) IFN-α 100 U/ml 48 hours, (−) 144): 925
nAD HG2917 major histocompatibility complex, class i, e (CNCM I-2546 (+) IFN-α 100 U/ml 48 hours, (−) 147): 813
nAD D21235 hhr23a protein [8]: 582
nAD U61263 acetolactate synthase homolog [8]: 464
nAD M65028 heterogeneous nuclear ribonucleoprotein a/b (CNCM I-2546 (+) IFN-α 100 U/ml 48 hours, (−) 153): 326
nAD HG658 major histocompatibility complex, class 1 c (CNCM I-2546 (+) IFN-α 100 U/ml 48 hours, (−) 156): 1692
nAD J04182 lysosomal membrane glycoprotein-1 (lamp1) (CNCM I-2546 (+) IFN-α 100 U/ml 48 hours, (−) 168): 452
nAD L07633 interferon-gamma (CNCM I-2546 (+) IFN-α 100 U/ml 48 hours, (−) 184): 463
nAD U18009 chromosome 17q21 clone lf113 (CNCM I-2546 (+) IFN-α 100 U/ml 48 hours, (−) 187): 735
nAD M94880 mhc class i (hla-a*8001) (CNCM I-2546 (+) IFN-α 100 U/ml 48 hours, (−) 202): 932
nAD J00105 beta-2 microglobulin gene (CNCM I-2546 (+) IFN-α 100 U/ml 48 hours, (−) 248): 1453
nAD U78525 human eukaryotic translation initiation factor (eif3) (CNCM I-2546 (+) IFN-α 100 U/ml 48 hours, (−) 275): 589
nAD U65932 extracellular matrix protein 1 (ecm1) (CNCM I-2546 (+) IFN-α 100 U/ml 48 hours, (−) 300): 907
nAD J04444 cytochrome c-1 gene (CNCM I-2546 (+) IFN-α 100 U/ml 48 hours, (−) 309): 1286
nAD HG1612 macmarcks (CNCM I-2546 (+) IFN-α 100 U/ml 48 hours, (−) 401): 1440
nAD M34338 spermidine synthase (CNCM I-2546 (+) IFN-α 100 U/ml 48 hours, (−) 429): 1413
nAD K03515 neuroleukin (CNCM I-2546 (+) IFN-α 100 U/ml 48 hours, (−) 487): 2126
nAD M30818 interferon-induced cellular resistance mediator protein (CNCM I-2546 (+) IFN-α 100 U/ml 48 hours, (−) 756): 155
nAD U72882 interferon-induced leucine zipper protein (ifp35) (CNCM I-2546 (+) IFN-α 100 U/ml 48 hours, (−) −9): 502
nAD U53830 interferon regulatory factor 7a (CNCM I-2546 (+) IFN-α 100 U/ml 48 hours, (−) −31): 237
nAD M97935 transcription factor isgf-3 (CNCM I-2546 (+) IFN-α 100 U/ml 48 hours, (−) −37): 296
nAD X57522 ring4 cdna (CNCM I-2546 (+) IFN-α 100 U/ml 48 hours, (−) −49): 97
nAD X07730 prostate specific antigen (CNCM I-2546 (+) IFN-α 100 U/ml 48 hours, (−) −64): 132
nAD U01824 glutamate/aspartate transporter (CNCM I-2546 (+) IFN-α 100 U/ml 48 hours, (−) −73): 91
nAD J04164 interferon-inducible protein 27-sep (CNCM I-2546 (+) IFN-α 100 U/ml 48 hours, (−) −89): 2066
nAD M92642 alpha-1 type xvi collagen (col16a1) (CNCM I-2546 (+) IFN-α 100 U/ml 48 hours, (−) −147): −133
nAD M13755 interferon-induced 17-kda/15-kda protein (CNCM I-2546 (+) IFN-α 100 U/ml 48 hours, (−) −181): 716
nAD X67325 p27 (CNCM I-2546 (+) IFN-α 100 U/ml 48 hours, (−) −211): 410
change factor (CF) D21235 hhr23a protein (CNCM I-2546, IFN-α 100 U/ml 48 hours): 2.88
